PubChem BioAssay (NCI)
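Tested at 5 concentrations; 48 h exposure; 96-well plates; endpoints linearly interpolated, else capped at highest concentration. Abbreviation: GI50, concentration required for 50% inhibition of growth. TGI: total growth inhibition.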

Experiments:
Assay in all cases: NCI tumour cell line growth inhibition, 48 h
[1] = tested on: HL-60(TB) leukemia
[2] = tested on: HOP-92 NSCLC
[3] = tested on: M14 melanoma
[4] = tested on: K-562 leukemia
[5] = tested on: SF-295 CNS
[6] = tested on: A498 renal
[7] = tested on: HOP-62 NSCLC
[8] = tested on: MCF7 breast
[9] = tested on: U251 CNS
[10] = tested on: SK-MEL-2 melanoma
[11] = tested on: COLO 205 colon
[12] = tested on: SNB-19 CNS
[13] = tested on: DU-145 prostate
[14] = tested on: EKVX NSCLC
[15] = tested on: NCI-H460 lung
[16] = tested on: OVCAR-3 ovarian
[17] = tested on: MDA-MB-435
[18] = tested on: OVCAR-4 ovarian
[19] = tested on: 786-0 renal
[20] = tested on: SNB-75 CNS
[21] = tested on: NCI-H522 lung
[22] = tested on: MDA-MB-231 breast
[23] = tested on: IGROV1 ovarian
[24] = tested on: RPMI-8226 leukemia
[25] = tested on: RXF 393 renal
[26] = tested on: NCI-H226 lung
[27] = tested on: OVCAR-8 ovarian
[28] = tested on: HCT-15 colon
[29] = tested on: PC-3 prostate
[30] = tested on: OVCAR-5 ovarian
[31] = tested on: KM12 colon
[32] = tested on: SN12C renal
[33] = tested on: TK-10 renal
[34] = tested on: SK-OV-3 ovarian
[35] = tested on: ACHN renal
[36] = tested on: A549 NSCLC
[37] = tested on: SK-MEL-28 melanoma
[38] = tested on: LOX IMVI melanoma
[39] = tested on: HT29 colon
[40] = tested on: CAKI-1 renal
[41] = tested on: UACC-257 melanoma
[42] = tested on: MOLT-4 leukemia
[43] = tested on: SF-268 CNS
[44] = tested on: SW-620 colon
[45] = tested on: MALME-3M melanoma
[46] = tested on: HCT-116 colon
[47] = tested on: SK-MEL-5 melanoma
[48] = tested on: UO-31 renal
[49] = tested on: HS 578T breast
[50] = tested on: NCI/ADR-RES ovarian
[51] = tested on: NCI-H23 lung
[52] = tested on: HCC-2998 colon
[53] = tested on: SF-539 CNS
[54] = tested on: T-47D breast
[55] = tested on: UACC-62 melanoma
[56] = tested on: SR leukemia
[57] = tested on: CCRF-CEM leukemia
[58] = tested on: BT-549 breast

O=c1c2[nH]ccc2nc2n1CCS2
GI50 [1]: 46.6 µM
TGI [1]: > 100 µM
GI50 [2]: > 100 µM
TGI [2]: > 100 µM
GI50 [3]: > 100 µM
TGI [3]: > 100 µM
GI50 [4]: > 100 µM
TGI [4]: > 100 µM
GI50 [5]: > 100 µM
TGI [5]: > 100 µM
GI50 [6]: > 100 µM
TGI [6]: > 100 µM
GI50 [7]: > 100 µM
TGI [7]: > 100 µM
GI50 [8]: > 100 µM
TGI [8]: > 100 µM
GI50 [9]: > 100 µM
TGI [9]: > 100 µM
GI50 [10]: > 100 µM
TGI [10]: > 100 µM
GI50 [11]: > 100 µM
TGI [11]: > 100 µM
GI50 [12]: > 100 µM
TGI [12]: > 100 µM
GI50 [13]: > 100 µM
TGI [13]: > 100 µM
GI50 [14]: > 100 µM
TGI [14]: > 100 µM
GI50 [15]: > 100 µM
TGI [15]: > 100 µM
GI50 [16]: > 100 µM
TGI [16]: > 100 µM
GI50 [17]: > 100 µM
TGI [17]: > 100 µM
GI50 [18]: > 100 µM
TGI [18]: > 100 µM
GI50 [19]: > 100 µM
TGI [19]: > 100 µM
GI50 [20]: 33.6 µM
TGI [20]: > 100 µM
GI50 [21]: > 100 µM
TGI [21]: > 100 µM
GI50 [22]: > 100 µM
TGI [22]: > 100 µM
GI50 [23]: > 100 µM
TGI [23]: > 100 µM
GI50 [24]: > 100 µM
TGI [24]: > 100 µM
GI50 [25]: > 100 µM
TGI [25]: > 100 µM
GI50 [26]: > 100 µM
TGI [26]: > 100 µM
GI50 [27]: > 100 µM
TGI [27]: > 100 µM
GI50 [28]: > 100 µM
TGI [28]: > 100 µM
GI50 [29]: > 100 µM
TGI [29]: > 100 µM
GI50 [30]: > 100 µM
TGI [30]: > 100 µM
GI50 [31]: > 100 µM
TGI [31]: > 100 µM
GI50 [32]: > 100 µM
TGI [32]: > 100 µM
GI50 [33]: > 100 µM
TGI [33]: > 100 µM
GI50 [34]: > 100 µM
TGI [34]: > 100 µM
GI50 [35]: > 100 µM
TGI [35]: > 100 µM
GI50 [36]: > 100 µM
TGI [36]: > 100 µM
GI50 [37]: > 100 µM
TGI [37]: > 100 µM
GI50 [38]: > 100 µM
TGI [38]: > 100 µM
GI50 [39]: > 100 µM
TGI [39]: > 100 µM
GI50 [40]: > 100 µM
TGI [40]: > 100 µM
GI50 [41]: > 100 µM
TGI [41]: > 100 µM
GI50 [42]: > 100 µM
TGI [42]: > 100 µM
GI50 [43]: > 100 µM
TGI [43]: > 100 µM
GI50 [44]: > 100 µM
TGI [44]: > 100 µM
GI50 [45]: > 100 µM
TGI [45]: > 100 µM
GI50 [46]: > 100 µM
TGI [46]: > 100 µM
GI50 [47]: 0.324 µM
TGI [47]: 0.913 µM
GI50 [48]: > 100 µM
TGI [48]: > 100 µM
GI50 [49]: > 100 µM
TGI [49]: > 100 µM
GI50 [50]: > 100 µM
TGI [50]: > 100 µM
GI50 [51]: > 100 µM
TGI [51]: > 100 µM
GI50 [52]: > 100 µM
TGI [52]: > 100 µM
GI50 [53]: > 100 µM
TGI [53]: > 100 µM
GI50 [54]: > 100 µM
TGI [54]: > 100 µM
GI50 [55]: > 100 µM
TGI [55]: > 100 µM

N#CC(C#N)=C1/C(=C/C=C/C=C/C=C/c2ccc(N3CCCCC3)s2)S(=O)(=O)c2ccccc21
TGI [1]: > 100 µM
TGI [2]: > 100 µM
TGI [3]: > 100 µM
TGI [4]: > 100 µM
TGI [5]: > 100 µM
TGI [6]: > 100 µM
TGI [7]: > 100 µM
TGI [8]: > 100 µM
TGI [9]: > 100 µM
TGI [10]: > 100 µM
TGI [11]: > 100 µM
TGI [12]: > 100 µM
TGI [13]: > 100 µM
TGI [14]: > 100 µM
TGI [15]: > 100 µM
TGI [16]: > 100 µM
TGI [17]: > 100 µM
TGI [18]: > 100 µM
TGI [19]: > 100 µM
TGI [20]: > 100 µM
TGI [21]: > 100 µM
TGI [22]: > 100 µM
TGI [23]: > 100 µM
TGI [24]: > 100 µM
TGI [25]: > 100 µM
TGI [26]: > 100 µM
TGI [27]: > 100 µM
TGI [28]: > 100 µM
TGI [29]: > 100 µM
TGI [30]: > 100 µM
TGI [31]: > 100 µM
TGI [32]: > 100 µM
TGI [33]: > 100 µM
TGI [34]: > 100 µM
TGI [35]: > 100 µM
TGI [36]: > 100 µM
TGI [37]: > 100 µM
TGI [38]: > 100 µM
TGI [39]: > 100 µM
TGI [40]: > 100 µM
TGI [41]: > 100 µM
TGI [42]: 63 µM
TGI [44]: > 100 µM
TGI [56]: > 100 µM
TGI [57]: > 100 µM
TGI [58]: > 100 µM
TGI [46]: > 100 µM
TGI [47]: > 100 µM
TGI [50]: > 100 µM
TGI [51]: > 100 µM
TGI [52]: > 100 µM
TGI [53]: > 100 µM
TGI [54]: > 100 µM
TGI [55]: > 100 µM
